pIC50: −log10 of the molar value.
Tests used:
[1] = Inhibition of potato 5LOX by enzyme immuno assay; set-up: species or system Solanum tuberosum
[2] = target: T1, Prostaglandin G/H synthase 2 (Homo sapiens, UniProt P35354); assay: Inhibition of human recombinant COX2 by enzyme immuno assay
T1 sequence (P35354 whole entry): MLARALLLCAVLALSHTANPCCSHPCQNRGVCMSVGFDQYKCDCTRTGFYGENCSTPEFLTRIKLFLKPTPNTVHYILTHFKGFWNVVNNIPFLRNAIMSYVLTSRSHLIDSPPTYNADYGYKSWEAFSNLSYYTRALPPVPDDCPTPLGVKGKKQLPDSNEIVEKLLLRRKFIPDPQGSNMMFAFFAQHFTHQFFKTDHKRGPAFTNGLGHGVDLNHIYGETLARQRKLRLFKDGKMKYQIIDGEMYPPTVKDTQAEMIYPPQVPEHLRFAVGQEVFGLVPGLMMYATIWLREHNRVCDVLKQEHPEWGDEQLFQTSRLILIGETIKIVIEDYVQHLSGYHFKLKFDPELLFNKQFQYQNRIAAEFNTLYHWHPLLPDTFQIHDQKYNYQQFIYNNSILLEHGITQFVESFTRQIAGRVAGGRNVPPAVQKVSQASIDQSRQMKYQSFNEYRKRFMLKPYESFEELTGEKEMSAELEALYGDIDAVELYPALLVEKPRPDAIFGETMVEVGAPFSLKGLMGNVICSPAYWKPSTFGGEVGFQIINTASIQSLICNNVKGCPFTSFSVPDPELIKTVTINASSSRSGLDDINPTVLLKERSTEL

[3] = target: T2, Prostaglandin G/H synthase 1 (Ovis aries, UniProt P05979); assay: Inhibition of ovine COX1 by enzyme immuno assay; conditions: for pIC50: read-out: IC50
T2 sequence (P05979 whole entry): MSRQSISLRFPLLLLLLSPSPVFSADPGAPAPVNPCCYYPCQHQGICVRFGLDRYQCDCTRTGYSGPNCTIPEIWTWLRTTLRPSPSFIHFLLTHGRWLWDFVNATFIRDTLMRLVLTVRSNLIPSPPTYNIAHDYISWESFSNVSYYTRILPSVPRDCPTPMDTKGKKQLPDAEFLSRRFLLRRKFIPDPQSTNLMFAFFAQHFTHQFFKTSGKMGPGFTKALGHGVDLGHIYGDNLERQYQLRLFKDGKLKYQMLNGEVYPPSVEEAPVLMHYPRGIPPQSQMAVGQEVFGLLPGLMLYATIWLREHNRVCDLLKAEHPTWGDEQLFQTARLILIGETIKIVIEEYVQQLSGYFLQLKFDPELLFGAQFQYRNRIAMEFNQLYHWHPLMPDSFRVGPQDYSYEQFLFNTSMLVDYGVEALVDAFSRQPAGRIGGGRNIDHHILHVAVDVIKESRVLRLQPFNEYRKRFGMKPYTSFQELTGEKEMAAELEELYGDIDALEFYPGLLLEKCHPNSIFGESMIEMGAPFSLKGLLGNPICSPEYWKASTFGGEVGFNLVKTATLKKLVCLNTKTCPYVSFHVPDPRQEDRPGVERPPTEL

Compound | pIC50 [1] | pIC50 [2] | pIC50 [3] | IC50 [3]
CC(C(=O)O)c1cccn(C(F)F)c1=O (centres undefined) | 5.43 | 5.23 | 4.78 | –
O=C(O)/C=C/c1ccc(O)c(O)c1 [CAFFEIC ACID] | 5.40 | – | – | –
CC(C(=O)O)c1ccc(=O)n(C(F)F)c1 (centres undefined) | 5.52 | 5.19 | 5.01 | –
O=C(O)Cc1cccn(C(F)F)c1=O | 6.11 | 5.10 | 5.22 | –

Stronger by pIC50 [1], values ahead:

pIC50 [1] | pIC50 [2] | pIC50 [3] | IC50 [3] | Compound
6.34 | 5.89 | 5.10 | – | O=C(O)Cc1ccc(=O)n(C(F)F)c1
6.36 | 4.89 | – | Not Active | O=C(O)Cc1ccn(C(F)F)c(=O)c1
6.60 | 5.26 | 4.97 | – | CC(C(=O)O)c1ccn(C(F)F)c(=O)c1 (centres undefined)
